Assay results published in patent publication US20250195490A1, “ALPHA-METHYLENE AND AMINOMETHYL LACTONES AND LACTAMS FOR TREATMENT OF CLOSTRIDIOIDES DIFFICILE INFECTION (CDI)” (Purdue Research Foundation, priority 2022, published 2025).

Key:
E. coli (TolC mutant) = test: MIC by broth microdilution against E. coli (TolC mutant); assay type: cell-based, Escherichia coli; settings: aerobic, 37° C., at least 18 hours
Protocol: (§1) Method: The minimum inhibitory concentration (MIC) of the compounds and control drugs, linezolid (antibiotic), vancomycin (antibiotic), 5-fluorocytosine (5-FC, antifungal drug), and fluconazole (antifungal drug) was determined using the broth microdilution method according to the guidelines outlined by the Clinical and Laboratory Standards Institute (CLSI) against clinically relevant bacterial (methicillin-resistant Staphylococcus aureus (MRSA), vancomycin-resistant Enterococcus faecalis (VRE), vancomycin-resistant Enterococcus faecium (VRE), Clostridioides difficile and Escherichia coli) and fungal (Candida albicans) strains. A solution equivalent to 0.5 McFarland standard was prepared from each strain and diluted in cation-adjusted Mueller-Hinton broth (for S. aureus and E. coli), tryptone soy broth (for E. faecalis), or brain heart infusion broth (for E. faecium) to achieve a bacterial inoculum of about 5×10^5 CFU/mL. C. difficile strains were cultured in brain heart infusion broth supplemented with hemin and vitamin K. C. albicans was diluted in RPMI medium supplemented with 3-(N-morpholino) propanesulfonic acid to achieve a fungal concentration of about 1.5×10^3 CFU/mL. Compounds and control drugs were added in the first row of the 96-well plates and diluted with media containing bacteria (to achieve a concentration gradient ranging from 128 to 1 μg/mL). For MRSA, VRE, and E. coli strains, plates were then incubated aerobically at 37° C. for at least 18 hours. C. albicans was incubated aerobically at 37° C. for 24 hours. Plates containing C. difficile were incubated anaerobically at […] for 48 hours.

E. faecalis (VRE) = test: microbe, parasite or virus in culture; assay type: cell-based, Enterococcus faecalis; settings: aerobic, 37° C., at least 18 hours
Protocol: as §1

E. faecium = test: Broth microdilution against vancomycin-resistant E. faecium; assay type: cell-based, Enterococcus faecium; settings: gradient 128 to 1 μg/mL
Protocol: as §1

C. difficile ATCC 43255 [1] = test: CDI mouse recurrence model; assay type: in vivo, C57BL/6 mice; settings: for signs of disease during therapy / survival by day 11: 10 mg/kg daily for 5 days
Description: For mouse recurrence, two models were used for testing the efficacy of aminomethyllactone 27 for preventing recurrence after treatment with vancomycin. The two models used were A—Chen et al model and B— a more aggressive protocol that was developed using modified Chen et al. protocol antibiotic cocktail (applying 3× times the doses of the antibiotics). In brief, groups of 12-weeks-old female C57BL/6 mice were sensitized to CDI by giving either the antibiotic cocktail described above or 3× the dose of antibiotics cocktail in the drinking water for 5 days. Then mice were treated with clindamycin (10 mg/kg) two days after withdrawal of the antibiotic cocktail. One day after clindamycin treatment, mice were infected orally with 1.9×10^6 CFU spore suspension of C. difficile ATCC 43255 [32]. Two hours after infection, animals were divided into groups (n=10), and groups received either Compound 27 (10 mg/kg) or vancomycin (10 mg/kg) by gavage daily for 5 days. Treatment was stopped at day 5, and mice were monitored for an additional 23 days. […] However, from day 9 onward (4 days after vancomycin was discontinued), vancomycin-treated mice developed CDI. By day 11, only 60% of the mice treated with vancomycin had survived in the original protocol (lx antibiotic), and there was 0% survival in the aggressive antibiotic protocol (3× antibiotic). […] Symptomatic recurrence of CDI occurs in approximately 20% of patients and is challenging to treat. In addition to subsequent prolongation of C. difficile shedding and transmission, 1 out of every 5 patients with CDI, who experienced a recurrence of the infection, died within 30 days of diagnosis. Compound 27, which reduces recurrences, can potentially prolong the clinical utility of current antibiotics (vancomycin and fidaxomicin).

C. difficile ATCC 43255 [2] = test: Antibiotic-induced C. difficile-associated diarrhea mouse model; assay type: in vivo, C57BL/6 mice; settings: 10 mg/kg by gavage daily for 5 days; two mouse models (protocols A and B)
Protocol: Preliminary in vivo experiments were carried out in two mouse models of antibiotic-induced C. difficile-associated diarrhea and two recurrence models to ensure the feasibility of using this new class of antibiotic orally against C. difficile infection.
Groups of 12-weeks-old female C57BL/6 mice were sensitized to CDI with two different protocols. A—Mice were given antibiotic cocktail containing gentamicin (0.035 mg/mL), kanamycin (0.4 mg/ml), metronidazole (0.215 mg/mL), colistin (850 U/mL), and vancomycin (0.045 mg/mL) in drinking water for 5 days. Then mice were treated with clindamycin (10 mg/kg) two days after withdrawal of the antibiotic cocktail. One day after clindamycin treatment, mice were infected orally with 1.9×10^6 CFU spore suspension of C. difficile ATCC 43255 [32]. Two hours after infection, animals were divided into groups (n=10), and groups received either vehicle (sterile water), Compound 27 (10 mg/kg), or vancomycin (10 mg/kg) by gavage daily for 5 days. B— In the second protocol mice were sensitized to CDI with cefoperazone (1.5 mg/mL) in the drinking water for 10 days. Afterwards, mice were switched to regular water for 2 days, followed by injecting clindamycin (10 mg/kg) intraperitoneally. One day after clindamycin treatment, mice were infected and treated as group A above.

C. albicans = test: Broth microdilution against Candida albicans; assay type: cell-based; settings: gradient 128 to 1 μg/mL, 24 hours
Protocol: as §1

Row | Structure (SMILES) | MIC E. coli (TolC mutant) (E. coli (TolC mutant)) | MIC E. faecalis (VRE) (E. faecalis (VRE)) | inhibition of the tested strains of E. faecium (E. faecium) | signs of disease during therapy (C. difficile ATCC 43255 [1]) | survival of mice (C. difficile ATCC 43255 [1]; 28 days, 10 mg/kg oral daily for 5 days) | recurrence of CDI (C. difficile ATCC 43255 [1]; for 28 days, 10 mg/kg oral daily for 5 days) | protection (C. difficile ATCC 43255 [2]) | activity against C. albicans (C. albicans) | survival by day 11 (C. difficile ATCC 43255 [1]; aggressive antibiotic protocol (3× antibiotic)) | survival by day 11 (C. difficile ATCC 43255 [1]; original protocol (1x antibiotic)) | day from which treated mice developed CDI (C. difficile ATCC 43255 [1]; treatment stopped at day 5)
1 | COc1cc(C2OC(=O)C(CN3CCCCC3)C2c2ccccc2Br)ccc1OCc1ccccc1 (racemic) [Compound 27] | >128 µg/mL | >128 µg/mL | did not inhibit | no signs of disease | 100% | no recurrence | 100% | inactive | – | – | –
2 | C=C1C(=O)O[C@H](c2ccccc2O)[C@@H]1c1cccc(C#N)c1 (racemic) [Compound 50] | >128 µg/mL | >128 µg/mL | did not inhibit | – | – | – | – | inactive | – | – | –
3 | CN[C@H](CC(C)C)C(=O)N[C@H]1C(=O)N[C@@H](CC(N)=O)C(=O)N[C@H]2C(=O)N[C@H]3C(=O)N[C@H](C(=O)N[C@H](C(=O)O)c4cc(O)cc(O)c4-c4cc3ccc4O)[C@H](O)c3ccc(c(Cl)c3)Oc3cc2cc(c3O[C@@H]2O[C@H](CO)[C@@H](O)[C@H](O)[C@H]2O[C@H]2C[C@](C)(N)[C@H](O)[C@H](C)O2)Oc2ccc(cc2Cl)[C@H]1O [Vancomycin, reference compound] | – | – | – | no signs of disease | – | – | 100% | – | 0% | 60% | ≥ 9 days
